In US20240391958A1, “KEANUMYCINS AND USES THEREOF IN MEDICINE AND PLANT PROTECTION” (Leibniz-Institut für Naturstoff-Forschung und …, priority 2023, published 2024):
Converted amounts (≈) assume the structure as drawn. “And” between values parts separate entries of the source, which are not always exact repeats. Identical values can stand only once. Like-named read-outs stand apart in the source and are kept apart here. Where a SMILES comes first, the peptide text is derived from it. Bridges are numbered along the chain shown (N, C = ends). [ ]: non-standard residue; d: D form. The star is where a group is joined. X1 = CCCCCCCCCCCC[C@@H](O)[C@@H](O)CC(=O)*; Asp(3S-OH) = N[C@H](C(=O)O)[C@H](O)C(=O)O; Thr(4-Cl) = N[C@H](C(=O)O)[C@H](O)CCl; aThr = C[C@H](O)[C@H](N)C(=O)O; d(hSer) = N[C@H](CCO)C(=O)O; dDab = NCC[C@@H](N)C(=O)O; Dab = NCC[C@H](N)C(=O)O; Dhb = C/C=C(\N)C(=O)O

Legend:
[1] = Cytotoxicity; format: cell-based; settings: human, HeLa cervix carcinoma cells (DSM ACC 57)
Method: Keanumycin A was assayed for antiproliferative effects (GI50) using human umbilical vein endothelial cells HUVEC (ATCC CRL-1730) and human chronic myeloid leukemia cells K-562 (DSM ACC 10) and for their cytotoxic effects (CC50) using human cervix carcinoma cells HeLa (DSM ACC 57) as previously described). The test compounds were dissolved in DMSO (10 mg mL-1).

[2] = system: Bacillus subtilis; experiment: Disk diffusion test; format: cell-based; settings: 1 mg/mL in MeOH, 50 μL per 9 mm hole, 24 h 37 °C
Method: (§1) A qualitative screen of different microorganisms was performed using a disk diffusion test. Each microorganism was plated on Mueller Hinton agar plates and 9 mm holes were punched out. The respective compounds were dissolved in the indicated solvent to yield solutions of specified concentrations. 50 μL of the respective solutions were placed in each hole. The plates were incubated for 24 h at 37° C. After incubation, the size of inhibition zones was determined.

[3] = system: Candida albicans; experiment: Disk diffusion test; format: cell-based; settings: 1 mg/mL in MeOH, 50 μL per 9 mm hole, 24 h 37 °C
Method: as §1

[4] = system: Enterococcus faecalis (VRE) 1528; experiment: Disk diffusion test; format: cell-based; settings: 1 mg/mL in MeOH, 50 μL per 9 mm hole, 24 h 37 °C
Method: as §1

[5] = system: Escherichia coli; experiment: Disk diffusion test; format: cell-based; settings: 1 mg/mL in MeOH, 50 μL per 9 mm hole, 24 h 37 °C
Method: as §1

[6] = system: Mycobacterium vaccae; experiment: Disk diffusion test; format: cell-based; settings: 1 mg/mL in MeOH, 50 μL per 9 mm hole, 24 h 37 °C
Method: as §1

[7] = system: Penicillium notatum; experiment: Disk diffusion test; format: cell-based; settings: 1 mg/mL in MeOH, 50 μL per 9 mm hole, 24 h 37 °C; methanol alone 10 mm
Method: as §1

[8] = system: Pseudomonas aeruginosa K799/61; experiment: Disk diffusion test; format: cell-based; settings: 1 mg/mL in MeOH, 50 μL per 9 mm hole, 24 h 37 °C
Method: as §1

[9] = system: Pseudomonas aeruginosa SG 137; experiment: Disk diffusion test; format: cell-based; settings: 1 mg/mL in MeOH, 50 μL per 9 mm hole, 24 h 37 °C
Method: as §1

[10] = system: Sporobolomyces salmonicolor; experiment: Disk diffusion test; format: cell-based; settings: 1 mg/mL in MeOH, 50 μL per 9 mm hole, 24 h 37 °C; methanol alone 10 mm
Method: as §1

[11] = system: Staphylococcus aureus (MRSA) 134/94; experiment: Disk diffusion test; format: cell-based; settings: 1 mg/mL in MeOH, 50 μL per 9 mm hole, 24 h 37 °C
Method: as §1

[12] = system: Staphylococcus aureus SG 511; experiment: Disk diffusion test; format: cell-based; settings: 1 mg/mL in MeOH, 50 μL per 9 mm hole, 24 h 37 °C
Method: as §1

[13] = system: Aspergillus fumigatus ATCC 204305; experiment: Broth dilution method (EUCAST); format: cell-based; settings: Aspergillus fumigatus
Method: (§2) The activity assay was performed using the broth dilution method according to the EUCAST DEFINITIVE DOCUMENT E.DEF 9.3.2. B. cinerea and A. solani were incubated according to the Methods for dilution antimicrobial susceptibility tests for bacteria that grow aerobically by the NCCLS. Keanumycin A was dissolved in DMSO.

[14] = system: Candida auris 2021-353; experiment: Broth dilution method (EUCAST); format: cell-based
Method: as §2

[15] = system: Candida parapsilosis ATCC 22019; experiment: Broth dilution method (EUCAST); format: cell-based; settings: Lodderomyces parapsilosis
Method: as §2

[16] = system: Rhizopus arrhizus 2021-366; experiment: Broth dilution method (EUCAST); format: cell-based
Method: as §2

[17] = system: Scedosporium apiospermum 2016-079; experiment: Broth dilution method (EUCAST); format: cell-based
Method: as §2

[18] = system: human vaginal epithelial cells A431 infected with C. albicans; experiment: C. albicans vaginal epithelial infection model, epithelial damage (LDH); format: cell-based; settings: 24 hours of infection, tested 1-16 μg/ml
Method: (§3) FIGS. 7A-7B show in 7A) Keanumycin A protected human vaginal epithelial cells in C. albicans infection model. Micrograph depicts % damage to human vaginal epithelial cells A431 (y-axis) in the presence of keanumycin A at varied concentrations (x-axis) as estimated by LDH cytotoxicity assay after 24 hours of infection or treatment. LDH absorbance was normalized to C. albicans infected and uninfected controls. Keanumycin A protected vaginal cells from damage by C. albicans at a narrow concentration range from 4-8 μg/ml (black line). Keanumycin A was toxic to vaginal cells at concentrations above 8 μg/ml (grey line) (N=3). […] Vaginal epithelial cells were lysed after 24-hour infection, and fungal viability was measured by XTT absorbance, normalized to C. albicans infected and uninfected controls (N=2) […]
(§4) Overnight culture of C. albicans strain SC5314 grown in YPD at 30° C., shaking at 180 RPM was harvested, washed twice with PBS. […] Epithelial damage was measured 24 hours after infection by collecting and diluting the supernatant 1:10 in PBS and measuring the lactate dehydrogenase (LDH) activity with the Roche Cytotoxicity Detection Kit (LDH) as per manufacturer's instructions. The absorbance (490 nm) values are represented as percentage damage, which is normalized to the low control, where medium only is 0% damage, and high control, where C. albicans infection is 100% damage. […]

[19] = system: C. albicans; experiment: Fungal viability in vaginal epithelial infection model (XTT); format: cell-based, Candida albicans; settings: XTT absorbance after 24-hour infection, N=2
Method: as §3, §4

[20] = system: C. albicans; experiment: Membrane permeabilization assay using SYTOX Green; format: cell-based, Candida albicans; settings: 4 μg mL-1 in 1% DMSO
From the text: Only isolated cells are stained, which can be explained by the fact that the dye can also be used to distinguish dead from live cells. Scale bar=100 μm.
To finally examine if keanumycin A is a membrane-active compound, the inventors performed a membrane permeabilization assay using SYTOX Green (FIG. 6). As a cell-impermeant dye, SYTOX Green enters the cell upon loss of membrane integrity and binds to DNA, which results in fluorescently stained cells. […] Thus, the keanumycins are membrane-active compounds that disturb the structure of the fungal […].

C/C=C1\NC(=O)[C@H]([C@H](C)O)NC(=O)[C@H](CCN)NC(=O)[C@@H](CCO)NC(=O)CNC(=O)[C@@H](CCN)NC(=O)[C@@H](NC(=O)C[C@H](O)[C@H](O)CCCCCCCCCCCC)COC(=O)[C@H]([C@H](O)CCl)NC(=O)[C@H]([C@H](O)C(=O)O)NC1=O [Keanumycin A, keanumycin A] (X1-S[dDab]G[d(hSer)][Dab][aThr][Dhb][Asp(3S-OH)][Thr(4-Cl)]; ester 1-C)
CC50 [1]: 34.9 µg/mL
CC50 ([1]; HeLa, converted value): 30 µM
Inhibition area diameter [2]: 11 mm
Inhibition area diameter [3]: 30 mm
Inhibition area diameter [4]: 12 mm
Inhibition area diameter [5]: 0 mm
Inhibition area diameter [6]: 13 mm
Inhibition area diameter [7]: 26 mm
Inhibition area diameter [8]: 0 mm
Inhibition area diameter [9]: 0 mm
Inhibition area diameter [10]: 28 mm
Inhibition area diameter [11]: 0 mm
Inhibition area diameter [12]: 10 mm
MIC ([13]; ATCC204305): 3.42 µM and 4 µg/mL
MIC ([13]; ATCC204305, read-out: Result of the broth dilution method assay (MIC)): 4 µg/mL (≈ 3.43 µM)
MIC ([14]; Candidozyma auris, 2021353): 0.86 µM and 1 µg/mL
MIC ([14]; Candidozyma auris, 2021353, read-out: Result of the broth dilution method assay (MIC)): 0.5 to 1 µg/mL (≈ 0.429 to 0.857 µM)
MIC ([15]; ATCC22019): 0.86 µM and 1 µg/mL
MIC ([15]; ATCC22019, read-out: Result of the broth dilution method assay (MIC)): 1 µg/mL (≈ 0.857 µM)
MIC ([16]; Rhizopus arrhizus, 2021366): > 6.85 µM and > 8 µg/mL
MIC ([16]; Rhizopus arrhizus, 2021366, read-out: Result of the broth dilution method assay (MIC)): > 8 µg/mL
MIC ([17]; Scedosporium apiospermum, 2016079): 6.85 µM and 8 µg/mL
MIC ([17]; Scedosporium apiospermum, 2016079, read-out: Result of the broth dilution method assay (MIC)): 8 µg/mL (≈ 6.86 µM)
concentration range protecting vaginal cells from damage by C. albicans [18]: 4 to 8 µg/mL
% fungal viability of C. albicans in infection model [19]: reduced C. albicans viability
membrane permeabilization (SYTOX Green staining) [20]: permeabilizes the cell wall of the fungi
membrane permeabilization (SYTOX Green staining) ([20]; listed as keanumycin A): staining of all cells
